# Molecular target: (VIBVN)NAT (arylamine N-acetyltransferase)
# Assay: DTNB assay of AcCoA-dependent acetylation, absorbance at […] nm
# Format: biochemical, Vibrio vulnificus
smiles,measurement,value
CCCS(=O)(=O)c1c(S(=O)(=O)CCC)c2ccccn2c1C(=O)N/N=C/c1cc(OC)ccc1O [AG-205-36710025],IC50,33.3 µM

# Reference: PMC11754874, “Novel inhibitors of the (VIBVN) NAT protein identified through pharmacophore modeling” (Scientific Reports, 2025)
